Reference: EP3381898A1, “SYMMETRICAL TRIS-ARYL-AMIDE DERIVATIVES AND THEIR USE AS ANTI-HEPARANASE” (priority 2017, dated 2018)
Where a name gives a salt, the structure may show the parent alone. Read-outs that look alike come from different tables or passages of the source.

Key:
[1] = target: T1, heparanase (Homo sapiens, UniProt Q9Y251); assay: AGA*IA assay: heparanase-catalyzed fondaparinux cleavage, colorimetric (WST-1); type: biochemical
T1 sequence (Q9Y251 158-543 limits assumed): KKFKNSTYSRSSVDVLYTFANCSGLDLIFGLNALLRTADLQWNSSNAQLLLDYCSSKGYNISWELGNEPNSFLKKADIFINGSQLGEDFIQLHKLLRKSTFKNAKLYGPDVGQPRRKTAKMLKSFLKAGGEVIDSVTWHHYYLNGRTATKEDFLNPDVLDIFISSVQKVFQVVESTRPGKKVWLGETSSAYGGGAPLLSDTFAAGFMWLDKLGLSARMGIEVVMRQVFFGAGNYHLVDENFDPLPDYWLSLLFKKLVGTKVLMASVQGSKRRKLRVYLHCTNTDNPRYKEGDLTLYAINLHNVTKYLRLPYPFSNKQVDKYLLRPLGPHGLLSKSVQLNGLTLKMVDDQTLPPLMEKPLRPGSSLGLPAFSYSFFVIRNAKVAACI
T1 sequence (Q9Y251 36-109 limits assumed): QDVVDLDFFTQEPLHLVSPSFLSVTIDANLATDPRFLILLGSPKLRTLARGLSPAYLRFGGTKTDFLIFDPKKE
Procedure: All compounds were tested in a simple, accurate and robust microplate assay based on the cleavage of the synthetic heparin fragment, the pentasaccharide Fondaparinux (AGA*IA). This assay was originally developed by Hammond and coworkers (Hammond E, Li CP, Ferro V. Development of a colorimetric assay for heparanase activity suitable for kinetic analysis and inhibitor screening. Anal. Biochem. 396(1), 112-116 (2010)), where Fondaparinux corresponds to the methyl glycoside of the antithrombin III (ATIII)-activating pentasaccharide sequence of heparin. Fondaparinux is cleaved by heparanase to generate a reducing disaccharide, which can be quantitatively measured via a colorimetric or a fluorescence assay, the last by the fluorescent sensor polymer-H [Schiemann S, Lühn S, Alban S. Development of both colorimetric and fluorescence heparinase activity assays using fondaparinux as substrate. Anal. Biochem. 427(1), 82-89 (2012)].
The assay measures the appearance of the disaccharide product of heparanase-catalyzed fondaparinux cleavage colorimetrically using the tetrazolium salt WST-1. Assay was essentially performed as described with minor modifications. Briefly, NUNC ELISA 96-well plates were pre-treated with a solution of 4% BSA (bovin serum albumin) in phosphate-buffered saline containing 0.05% Tween 20 (PBST), for 2 h at 37°C, then washed three times with PBST, dried by tapping on paper towel and stored at -20°C. Before use, once again, the plates were washed with PBST.
Assay was carried out with 100 µl/well of assay solution containing 40 mM sodium acetate buffer (pH 5.0), 100 µM fondaparinux, 2.5 nM heparanase and serial dilutions of test compounds (tested in triplicate). Plates were sealed with adhesive tape and incubated, in the dark, for 3 h at 37°C, followed by development with 1.69 mM of the tetrazolium salt WST-1 solution in 0.1 M NaOH, for 1 h at 60°C. Then, the absorbance at 560 nm was measured through a microplate reader (Victor 3, Perkin Elmer).
Finally, the measurements were corrected by subtracting both the reagent background and the inner absorbance value of test compound.

[2] = tested on: HT1080 (human fibrosarcoma); assay: SRB Cell Cytotoxicity Assay (cell proliferation, 72h); type: cell-based; conditions: read-out: Concentration (µM) of test compounds at which the cell growth is inhibited by 50 %. HT1080
Procedure: (§1) SRB Cell Cytotoxicity Assay is an assay based upon the quantitative staining of cellular proteins by sulforhodamine B (SRB). This assay can be used for high-throughput drug screening ([…], Nature Protocol. 2006, 1, 112). Sulforhodamine B is an anionic aminoxanthene dye that forms an electrostatic complex with the basic amino acid residues of proteins under moderately acid conditions, which provides a sensitive linear response. […] Inhibition of cell proliferation was then measured by the classical colorimetric SRB Cell Cytotoxicity assay. Absorbance was measured by spectrophotometer at a wavelength of 510 nm and cell proliferation was determined as percent with respect to control cells (cells treated with the vehicle alone). EC50 values were then determined by GraphPad Prism.

[3] = tested on: U2OS (human osteosarcoma); assay: as above; type: cell-based; conditions: read-out: Concentration (µM) of test compounds at which the cell growth is inhibited by 50 %. U2OS
Procedure: as §1

[4] = tested on: U87MG (human glioblastoma astrocytoma); assay: as above; type: cell-based; conditions: U-87 MG, read-out: Concentration (µM) of test compounds at which the cell growth is inhibited by 50 %. U87MG
Procedure: as §1

[5] = tested on: HT1080 (human fibrosarcoma); assay: Matrigel cell invasion assay; type: cell-based; conditions: for inhibition at 2.5 µM: HT-1080, read-out: Invasion Assay Inhibition HT1080
Procedure: (§2) Heparanase inhibitors were then evaluated for their activity on the invasive potential of HT1080 (human fibrosarcoma), U87MG (human glioblastoma astrocytoma) and U2OS (human osteosarcoma) human cell lines, using the Matrigel cell invasion assay which allows to assess the cell invasion ability of malignant and normal cells.
(§3) Invasion assay was performed using BioCoat cell culture inserts (BioCoat 8.0µm PET Membrane 24 Well Permeable Supports, Corning). Filters were coated with 100 µl of 300 µg/ml Matrigel dissolved in coating buffer (0.01 M Tris pH 8.0, 0.7% NaCl) (Becton-Dickinson Sciences). DMEM (Dulbecco's Modified Eagle's Medium) containing 5% FBS was added to the lower chambers. Cells were pre-treated with heparanase inhibitors for 24 h, detached and added to the upper chambers in media containing the inhibitors. Cells were allowed to invade for 24 h at 37°C in a CO2 incubator and then unmigrated cells were removed from the upper chamber with a cotton swab. The invading cells were fixed, stained with 0.1% crystal violet for 10 min at room temperature, photographed and counted under inverted microscope.
(§4) Test compounds were analyzed at fixed concentration (2.5 µM) for several fields, in duplicates. Activity of test compounds was compared to the reference compound. Activity of most interesting compound was confirmed in a second cell invasion assay. Data were expressed as the percent invasion with respect to cell migration through uncoated insert membrane.
(§5) Table 3. […] In Invasion assay, data were expressed as the percent invasion (range) with respect to cell migration through uncoated insert membrane. In Adhesion assay, data were expressed as the percent of adhesion with respect to the control (100%).

[6] = tested on: U2OS (human osteosarcoma); assay: Matrigel cell invasion assay; type: cell-based; conditions: for inhibition at 2.5 µM: Homo sapiens, read-out: Invasion Assay Inhibition U2OS
Procedure: as §2, §3, §4, §5

[7] = tested on: U87MG (human glioblastoma astrocytoma); assay: Matrigel cell invasion assay; type: cell-based; conditions: for inhibition at 2.5 µM: Homo sapiens, U-87 MG, read-out: Invasion Assay Inhibition U87MG
Procedure: as §2, §3, §4, §5

[8] = tested on: HT1080 (human fibrosarcoma); assay: Cell adhesion assay on matrigel coated wells; type: cell-based; conditions: percent of adhesion with respect to the control (100%)
Procedure: (§6) Cell surface, non-integrin molecules such as heparan sulfate proteoglycans (HSPGs) may be involved in the regulation of early adhesive stages of cell-ECM interactions. A cell adhesion assay has been employed to determine if the newly designed heparanase inhibitors were able to interfere with adhesion properties of cancer cells.
(§7) HT1080 (human fibrosarcoma) and U87MG (human glioblastoma astrocytoma) cells were treated for 18-20 h with test compounds in complete medium supplemented with 10% FCS. Then cells were collected, washed in complete medium, and added to matrigel coated wells in triplicate, at previously identified optimal seeding density, and incubated at 37 °C in complete medium for times ranging from 15 minutes to 4h, according to the cell line. After incubation, the wells were washed three times with serum-free medium and the remaining firmly attached cells were stained with crystal-violet 0.1%. Optical density was measured at 560 nm by Victor 3 (Perkin-Elmer) plate analyzer. Each experiment was repeated three times.
as §5

[9] = tested on: U87MG (human glioblastoma astrocytoma); assay: Cell adhesion assay on matrigel coated wells; type: cell-based; conditions: percent of adhesion with respect to the control (100%)
Procedure: as §6, §7, §5

[10] = AGA*IA screening, read-out: anti-heparanase activity
[11] = Table 1, range activity classes, AGA*IA test on Fondaparinux, read-out: AGAIA assay IC50
[12] = Table 2, classes as in Table 1, read-out: AGA*IA assay

| Structure (SMILES) | IC50 [1, 10] [µM] | IC50 [1, 11] [µM] | IC50 [1, 12] [µM] | EC50 ([2]; HT-1080, 72 h) [µM] | EC50 ([3]; 72 h) [µM] | EC50 ([4]; 72 h) [µM] | inhibition at 2.5 µM [5] [%] | Invasion Assay Inhibition U2OS ([6]; 2.5 µM) | inhibition at 2.5 µM [7] [%] | Adhesion Assay (%) HT1080 ([8]; 2.5 µM) [%] | Adhesion Assay (%) U87MG ([9]; 2.5 µM) [%] | inhibition at 2.5 µM [6] [%] | EC50 ([2]; HT-1080, HT1080, 72h, SRB) [µM] | EC50 ([3]; 72h, SRB) [µM] | EC50 ([4]; U87MG, 72h, SRB) [µM] | inhibition at 10 µM ([5]; HT-1080, HT1080, 10 µM (reference)) [%] | Invasion Assay Inhibition U2OS ([6]; 10 µM (reference)) | Invasion Assay Inhibition U87MG ([7]; U87MG, 10 µM (reference)) | Adhesion Assay (%) HT1080 ([8]; 10 µM (reference)) [%] | Adhesion Assay (%) U87MG ([9]; 10 µM (reference)) [%] |
| --- | --- | --- | --- | --- | --- | --- | --- | --- | --- | --- | --- | --- | --- | --- | --- | --- | --- | --- | --- | --- |
| Cn1cc(NC(=O)c2cccc(NC(=O)Nc3cccc(C(=O)Nc4cc(C(=O)Nc5cccc(CC(=O)NCC(=O)O)c5)n(C)c4)c3)c2)cc1C(=O)Nc1cccc(CC(=O)NCC(=O)O)c1 [Compound 12b, 2,2'-((2,2'-(((4,4'-((3,3'-(Carbonylbis(azanediyl))bis(benzoyl))bis(azanediyl))bis(1-methyl-1H-pyrrole-4,2-diyl-2-carbonyl))bis(azanediyl))bis(3,1-phenylene))bis(acetyl))bis(azanediyl))diacetic acid] | < 0.5 | 0.05 to 0.49 | 0.05 to 0.49 | > 2.5 | > 2.5 | > 2.5 | < 50 | - | < 50 | 97.1 | 16.7 |  |  |  |  |  |  |  |  |  |
| Cn1cc(NC(=O)c2cc(NC(=O)Nc3cc(C(=O)Nc4cc(C(=O)Nc5cccc(CC(=O)NCC(=O)O)c5)n(C)c4)cc(C(F)(F)F)c3)cc(C(F)(F)F)c2)cc1C(=O)Nc1cccc(CC(=O)NCC(=O)O)c1 [Compound 13c, Disodium 2,2'-{carbonylbis[imino[5-(trifluoromethyl)-3,1-phenylene]carbonylimino(1-methyl-1H-pyrrole-4,2-diyl)carbonylimino-3,1-phenylene(1-oxoethane-2,1-diyl)imino]}diethanoate salt] | < 0.5 | 0.05 to 0.49 | 0.05 to 0.49 | > 2.5 | > 2.5 | > 2.5 | < 50 |  | < 50 | 88.2 | 22.0 | 50 to 90 |  |  |  |  |  |  |  |  |
| Cn1cc(NC(=O)Nc2cc(C(=O)Nc3cc(C(=O)Nc4cccc(CC(=O)N[C@@H](Cc5ccccc5)C(=O)O)c4)n(C)c3)n(C)c2)cc1C(=O)Nc1cc(C(=O)Nc2cccc(CC(=O)N[C@@H](Cc3ccccc3)C(=O)O)c2)n(C)c1 [Compound 17e, 2,2'-{carbonylbis[imino(1-methyl-1H-pyrrole-4,2-diyl)carbonylimino(1-methyl-1H-pyrrole-4,2-diyl)carbonylimino-3,1-phenylene(1-oxoethane-2,1-diyl)imino]}bis(3-phenylpropanoic acid)] |  | 0.5 to 0.99 | 0.5 to 0.99 | > 2.5 | > 2.5 | > 2.5 | < 50 | - | < 50 | 93.2 | 51.6 |  |  |  |  |  |  |  |  |  |
| Cn1cc(NC(=O)Nc2cc(C(=O)Nc3cc(C(=O)Nc4cccc(CC(=O)NCC(=O)O)c4)n(C)c3)n(C)c2)cc1C(=O)Nc1cc(C(=O)Nc2cccc(CC(=O)NCC(=O)O)c2)n(C)c1 [Compound 18, Disodium 2,2'-{carbonylbis[imino(1-methyl-1H-pyrrole-4,2-diyl)carbonylimino(1-methyl-1H-pyrrole-4,2-diyl)carbonylimino-3,1-phenylene(1-oxoethane-2,1-diyl)imino]}diethanoate salt] |  | 0.5 to 0.99 | 0.5 to 0.99 | > 2.5 | > 2.5 | > 2.5 | 50 to 90 |  | < 50 | 86.4 | 62.9 | < 50 |  |  |  |  |  |  |  |  |
| Cc1ccc(C(=O)Nc2ccc(S(=O)(=O)O)c3cc(S(=O)(=O)O)cc(S(=O)(=O)O)c23)cc1NC(=O)c1cccc(NC(=O)Nc2cccc(C(=O)Nc3cc(C(=O)Nc4ccc(S(=O)(=O)O)c5cc(S(=O)(=O)O)cc(S(=O)(=O)O)c45)ccc3C)c2)c1 [Suramin, reference compound] |  |  |  |  |  |  |  |  |  |  |  |  | > 10 | > 10 | > 10 | < 50 | - | - | 100 | 72.98 |
